In DBAASP:
Converted amounts (≈) assume the structure as drawn.

Assays:
Assay in all cases: ≥ marks a high value that may be exact or a test limit, other limits are often not marked, values filed in µg/mL are converted to µM
[1] = tested on: Staphylococcus aureus KCTC 1621
[2] = tested on: Escherichia coli KCTC 1682
[3] = tested on: Bacillus subtilis KCTC 3068
[4] = tested on: Salmonella typhimurium KCTC 1926
[5] = tested on: Pseudomonas aeruginosa KCTC 1637
[6] = tested on: Staphylococcus epidermidis KCTC 1917
[7] = tested on: Staphylococcus aureus ATCC 43300
[8] = tested on: Escherichia coli ATCC 25922
[9] = tested on: Candida albicans ATCC 10231
[10] = tested on: Pseudomonas aeruginosa ATCC 27853
[11] = tested on: Enterococcus faecalis ATCC 29212
Staphylococcus aureus = tested on: Staphylococcus aureus
Acinetobacter baumannii = tested on: Acinetobacter baumannii
Escherichia coli = tested on: Escherichia coli
[12] = tested on: Acinetobacter baumannii ATCC 19606
[13] = tested on: Klebsiella pneumoniae ATCC 13883
Pseudomonas aeruginosa = tested on: Pseudomonas aeruginosa
Klebsiella pneumoniae = tested on: Klebsiella pneumoniae
[14] = tested on: Staphylococcus aureus ATCC 25923
[15] = tested on: Salmonella enterica subsp. enterica serovar Typhimurium ATCC 14028
[16] = tested on: Staphylococcus epidermidis ATCC 12228
[17] = tested on: Salmonella enterica subsp. enterica serovar Typhimurium C77-31
[18] = tested on: Salmonella enterica subsp. enterica serovar Pullorum C79-13
[19] = tested on: Staphylococcus aureus ATCC 29213

Structure (SMILES): CC(C)C[C@H](NC(=O)[C@H](C)NC(=O)[C@H](Cc1c[nH]c2ccccc12)NC(=O)[C@H](CCCCN)NC(=O)[C@H](CC(N)=O)NC(=O)[C@H](Cc1c[nH]c2ccccc12)NC(=O)[C@H](CCCCN)NC(=O)[C@H](CCCCN)NC(=O)[C@H](CCCN=C(N)N)NC(=O)[C@H](Cc1ccccc1)NC(=O)[C@H](CCC(=O)O)NC(=O)[C@H](CO)NC(=O)[C@H](C)NC(=O)[C@@H](NC(=O)[C@H](CC(=O)O)NC(=O)[C@H](CC(C)C)NC(=O)[C@H](CCCN=C(N)N)NC(=O)[C@H](C)N)C(C)C)C(=O)N[C@@H](CO)C(=O)N[C@@H](CCCN=C(N)N)C(N)=O [ARLDVASEFRKKWNKWALSR]
- MIC [1]: 16 µM (≈ 39.4 µg/mL)
- MIC [2]: 8 µM (≈ 19.7 µg/mL)
- MIC [3]: 8 µM (≈ 19.7 µg/mL)
- MIC [4]: 16 µM (≈ 39.4 µg/mL)
- MIC [5]: ≥ 32 µM
- MIC [6]: 8 µM (≈ 19.7 µg/mL)

Structure (SMILES): CC(C)[C@H](NC(=O)CN)C(=O)N[C@@H](CO)C(=O)NCC(=O)N[C@@H](Cc1cnc[nH]1)C(=O)NCC(=O)N[C@@H](CCC(N)=O)C(=O)N[C@@H](Cc1cnc[nH]1)C(=O)NCC(=O)N[C@H](C(=O)N[C@@H](Cc1cnc[nH]1)C(=O)NCC(=O)O)C(C)C [GVSGHGQHGVHG]
- MIC [7]: > 113 µM
- MIC [8]: > 113 µM
- MIC [9]: > 113 µM
- MIC [10]: > 113 µM
- MIC [11]: > 113 µM

Structure (SMILES): CC[C@H](C)[C@H](N)C(=O)NCC(=O)N[C@@H](CCCCN)C(=O)N[C@@H](CC(C)C)C(=O)N[C@@H](Cc1ccccc1)C(=O)N[C@@H](CCCCN)C(=O)N[C@@H](CCCN=C(N)N)C(=O)N[C@H](C(=O)N[C@H](C(=O)N[C@@H](CCC(N)=O)C(=O)N[C@@H](CCCN=C(N)N)C(=O)N[C@H](C(=O)N[C@@H](CC(C)C)C(=O)N[C@@H](CCCCN)C(=O)N[C@@H](Cc1ccccc1)C(=O)N[C@@H](CC(C)C)C(=O)N[C@@H](CCCN=C(N)N)C(=O)N[C@@H](CC(N)=O)C(=O)N[C@@H](CC(C)C)C(=O)O)[C@@H](C)CC)C(C)C)[C@@H](C)CC [IGKLFKRIVQRILKFLRNL]
- MIC [1]: 8 µM (≈ 18.8 µg/mL)
- MIC [2]: 8 µM (≈ 18.8 µg/mL)
- MIC [3]: 2 µM (≈ 4.71 µg/mL)
- MIC [4]: 4 µM (≈ 9.42 µg/mL)
- MIC [5]: 8 µM (≈ 18.8 µg/mL)
- MIC [6]: 8 µM (≈ 18.8 µg/mL)

Structure (SMILES): CC[C@H](C)[C@H](NC(=O)[C@H](CCCCN)NC(=O)CNC(=O)[C@H](C)NC(=O)[C@H](CCCCN)NC(=O)CNC(=O)[C@H](C)NC(=O)[C@@H](NC(=O)[C@H](CCCCN)NC(=O)[C@H](C)NC(=O)[C@@H](NC(=O)[C@H](CCCCN)NC(=O)CNC(=O)[C@H](C)NC(=O)[C@H](CCCCN)NC(=O)CNC(=O)[C@H](C)NC(=O)[C@@H](NC(=O)[C@@H](N)CCCCN)[C@@H](C)CC)[C@@H](C)CC)[C@@H](C)CC)C(=O)N[C@@H](C)C(N)=O [KIAGKAGKIAKIAGKAGKIA]
- MIC (Staphylococcus aureus): > 64 µM
- MIC (Acinetobacter baumannii): ≥ 64 µM
- MIC (Escherichia coli): > 64 µM
- MIC [12]: > 64 µM
- MIC [13]: ≥ 64 µM
- MIC [8]: > 64 µM
- MIC (Pseudomonas aeruginosa): > 64 µM
- MIC (Klebsiella pneumoniae): > 64 µM
- MIC [14]: > 64 µM
- MIC [10]: > 64 µM

Structure (SMILES): CC[C@H](C)[C@H](NC(=O)[C@H](CCCCN)NC(=O)[C@H](CCCCN)NC(=O)[C@H](CC(C)C)NC(=O)[C@@H](N)CCCCN)C(=O)N[C@H](C(=O)N[C@H](C(=O)N[C@H](C(=O)N[C@@H](CCCCN)C(=O)N[C@H](C(=O)N[C@@H](CCCCN)C(=O)N[C@@H](CCCCN)C(N)=O)C(C)C)[C@@H](C)CC)C(C)C)C(C)C [KLKKIVVIKVKK]
- MIC [1]: 8.78 µM (≈ 12.5 µg/mL)
- MIC [2]: 8.78 µM (≈ 12.5 µg/mL)
- MIC [3]: 8.78 µM (≈ 12.5 µg/mL)
- MIC [4]: 2.2 µM (≈ 3.13 µg/mL)
- MIC [5]: 17.6 µM (≈ 25 µg/mL)
- MIC [6]: 2.2 µM (≈ 3.13 µg/mL)

Structure (SMILES): CC[C@H](C)[C@H](NC(=O)[C@H](CCCCN)NC(=O)[C@H](Cc1c[nH]c2ccccc12)NC(=O)[C@H](CC(C)C)NC(=O)[C@@H](N)CCCCN)C(=O)N[C@H](C(=O)N[C@H](C(=O)N[C@H](C(=O)N[C@@H](CCCCN)C(=O)N[C@H](C(=O)N[C@@H](Cc1c[nH]c2ccccc12)C(=O)N[C@@H](CCCCN)C(N)=O)C(C)C)[C@@H](C)CC)C(C)C)C(C)C [KLWKIVVIKVWK]
- MIC [1]: 16.2 µM (≈ 25 µg/mL)
- MIC [2]: ≥ 32.5 µM
- MIC [3]: ≥ 32.5 µM
- MIC [4]: 16.2 µM (≈ 25 µg/mL)
- MIC [5]: 16.2 µM (≈ 25 µg/mL)
- MIC [6]: 16.2 µM (≈ 25 µg/mL)

Structure (SMILES): CC[C@H](C)[C@H](NC(=O)[C@H](CCCN=C(N)N)NC(=O)[C@H](CCCCN)NC(=O)[C@H](CCCN=C(N)N)NC(=O)[C@@H](NC(=O)[C@H](CCCN=C(N)N)NC(=O)[C@@H](N)CCCCN)[C@@H](C)CC)C(=O)N[C@@H](CCCCN)C(=O)N[C@@H](CCCCN)C(=O)N[C@@H](Cc1c[nH]c2ccccc12)C(=O)N[C@@H](CCCCN)C(=O)N[C@@H](CCCN=C(N)N)C(N)=O [KRIRKRIKKWKR]
- MIC [1]: 4 µM (≈ 6.78 µg/mL)
- MIC [2]: 2 µM (≈ 3.39 µg/mL)
- MIC [3]: 4 µM (≈ 6.78 µg/mL)
- MIC [4]: 2 µM (≈ 3.39 µg/mL)
- MIC [5]: 2 µM (≈ 3.39 µg/mL)
- MIC [6]: 2 µM (≈ 3.39 µg/mL)

Structure (SMILES): CC(C)C[C@H](NC(=O)[C@H](CC(C)C)NC(=O)[C@H](CCCN=C(N)N)NC(=O)[C@H](CCCN=C(N)N)NC(=O)[C@H](C)NC(=O)[C@H](Cc1c[nH]c2ccccc12)NC(=O)CNC(=O)[C@H](CCCN=C(N)N)NC(=O)[C@@H](N)CCCN=C(N)N)C(=O)N[C@@H](CCCN=C(N)N)C(=O)N[C@@H](C)C(=O)N[C@@H](Cc1ccccc1)C(=O)N[C@@H](C)C(=O)N[C@@H](Cc1ccccc1)C(=O)NCC(=O)N[C@@H](CCCN=C(N)N)C(=O)N[C@@H](CCCN=C(N)N)C(N)=O [RRGWARRLLRAFAFGRR]
- MIC [15]: 2.9 µM (≈ 6.22 µg/mL)
- MIC [12]: 2.7 µM (≈ 5.79 µg/mL)
- MIC [13]: 30 µM (≈ 64.3 µg/mL)
- MIC [14]: > 30 µM

Structure (SMILES): CC(C)C[C@H](NC(=O)CNC(=O)CNC(=O)CNC(=O)[C@H](Cc1c[nH]c2ccccc12)NC(=O)[C@H](CCCCN)NC(=O)[C@H](Cc1c[nH]c2ccccc12)NC(=O)[C@H](CCCCN)NC(=O)[C@H](Cc1c[nH]c2ccccc12)NC(=O)[C@H](CCCCN)NC(=O)CNC(=O)[C@H](CC(N)=O)NC(=O)[C@H](CCCCN)NC(=O)[C@H](Cc1c[nH]c2ccccc12)NC(=O)[C@H](CCCCN)NC(=O)[C@H](Cc1c[nH]c2ccccc12)NC(=O)[C@H](CCCCN)NC(=O)[C@@H](N)Cc1c[nH]c2ccccc12)C(=O)N[C@H](C(=O)N[C@H](C(=O)N[C@@H](CC(C)C)C(=O)N[C@H](C(=O)N[C@@H](Cc1ccccc1)C(=O)N[C@H](C(=O)O)C(C)C)C(C)C)[C@@H](C)O)C(C)C [WKWKWKNGKWKWKWGGGLVTLVFV]
- MIC [16]: 32 µM (≈ 96.6 µg/mL)
- MIC [17]: ≥ 128 µM
- MIC [18]: 8 µM (≈ 24.1 µg/mL)
- MIC [8]: 2 µM (≈ 6.04 µg/mL)
- MIC [19]: 8 µM (≈ 24.1 µg/mL)
- MIC [11]: 16 µM (≈ 48.3 µg/mL)

Structure (SMILES): CC(C)C[C@H](NC(=O)[C@H](CCCCN)NC(=O)[C@@H]1CCCN1C(=O)[C@H](CC(C)C)NC(=O)[C@H](CC(C)C)NC(=O)CNC(=O)[C@H](CCCCN)NC(=O)[C@H](CC(C)C)NC(=O)[C@H](CCCCN)NC(=O)[C@@H]1CCCN1C(=O)[C@H](CC(C)C)NC(=O)[C@H](CC(C)C)NC(=O)[C@H](CC(C)C)NC(=O)[C@H](CCCCN)NC(=O)[C@H](CC(C)C)NC(=O)[C@H](CC(C)C)NC(=O)[C@H](CCCCN)NC(=O)[C@@H](N)Cc1ccc(O)cc1)C(N)=O [YKLLKLLLPKLKGLLPKL]
- MIC [9]: 40 µM (≈ 83.6 µg/mL)
- MIC [19]: 5.93 µM (≈ 12.4 µg/mL)
- MIC [10]: 5.86 µM (≈ 12.2 µg/mL)

Structure (SMILES): CC(C)C[C@H](NC(=O)[C@H](CCCCN)NC(=O)[C@H](CCC(=O)O)NC(=O)[C@H](CC(C)C)NC(=O)[C@H](CC(C)C)NC(=O)[C@H](C)NC(=O)[C@H](CCCCN)NC(=O)[C@H](CC(C)C)NC(=O)[C@H](CCCCN)NC(=O)[C@H](CC(C)C)NC(=O)[C@H](CC(C)C)NC(=O)[C@H](CC(C)C)NC(=O)[C@H](Cc1c[nH]c2ccccc12)NC(=O)[C@H](CCCCN)NC(=O)[C@H](CC(C)C)NC(=O)[C@H](CC(C)C)NC(=O)[C@H](CCCCN)NC(=O)[C@@H](N)Cc1ccc(O)cc1)C(N)=O [YKLLKWLLLKLKALLEKL]
- MIC [9]: > 76.3 µM
- MIC [19]: 38.1 µM (≈ 84.8 µg/mL)
- MIC [10]: 28.6 µM (≈ 63.6 µg/mL)
